Experimental data: patent US10662146B2, “Prodrugs of fencamfamine” (Praxis Bioresearch, LLC, priority 2015, dated 2020)
Where “and” joins values, the source holds several entries; their conditions need not be identical. Equal values may be shown once. Read-outs that look alike come from different tables or passages of the source.

Assay: Single dose oral PK study in male Sprague Dawley rats (plasma by LC-MS/MS)
Assay type: in vivo
Method: We describe here PK results of prodrugs of PRX-002 (−) or (+) isomers. All doses of prodrugs were administered such that they were equivalent to 5 mg/kg of PRX-002 (−) or (+) for oral studies and 2 mg/kg PRX-002 (−) or (+) for intravenous studies in male Sprague-Dawley (MSD) rats. Higher doses of up to 10 or 15 mg/kg [again equivalent to PRX-002 (−)] were used in some studies (as specified)]. Formulation preparation, dose administration and time of sample collection was as follows.
Test item was weighed [5 mg equivalent dose of PRX-002 for prodrugs] and transferred to a graduated tube. Then 10 μL of Tween 80 was added and vortexed mixed until the test item was completely mixed. Small volume of 0.5% (w/v) carboxymethylcellulose in water solution was then added dropwise with continuous vortex mixing until a uniform suspension was obtained. The final volume was then made up to 10 mL with 0.5% (w/v) carboxymethylcellulose in water with final strength of 0.5 mg/mL. […] This formulation was freshly prepared before the administration to animals.
(§1) Adult male Sprague Dawley Rats aged 8-10 weeks were used for the study. Fasted animals were administered test item by oral route with a dose of 5 mg/kg body weight at dose volume of 10 mL/kg body weight. Under mild isoflurane anesthesia, blood specimens were collected by retro-orbital puncture method using capillary tubes into pre-labeled tubes containing anticoagulant (K2EDTA-2 mg/mL blood) during the next 24 hours of post dose as mentioned in below table. For blood sampling at multiple time points, right and left eyes were used alternatively for blood collection. Collected blood specimens were centrifuged at 4000 rpm, 4° C. for 10 minutes and plasma were separated and stored at −80° C. until analysis.
Blood was collected as outlined in Table 39.1 (oral).
(§2) Test item PRX-P4-003 was weighed and transferred to a graduated tube. Then 12.42 μL of Tween 80 was added and vortexed mixed until the test item was completely mixed. Small volume of 0.5% (w/v) Carboxymethylcellulose in water solution was then added dropwise with continuous vortex mixing until a uniform suspension was obtained. The final volume was then made up to 12.42 mL with 0.5% (w/v) Carboxymethylcellulose in water with final strength of 1.0 mgA/mL. […] This formulation was freshly prepared before the administration to animals.
as §1, with “with a PRX-P4-003” for “test item”, “10” for “5”
as §2, with “PRX-P5-006” for “PRX-P4-003”, “10” for “12.42”, “3.97 mg/mL.” for “1.0 mgA/mL.”
Adult male Sprague Dawley Rats aged 8-10 weeks were used for the study. Fasted animals were administered with a PRX-P5-006 by oral route with a dose of 15 mg/kg body weight at dose volume of 10 mL/kg body weight. […]

## CCCCCCCCCCCCCCCCCC(=O)OCOC(=O)N(CC)C1C2CCC(C2)C1c1ccccc1 (single isomer, unassigned) [PRX-P4-003, N-(Octadecanoyloxymethoxycarbonyl)-(−)-N-ethyl-3-phenylbicyclo[2.2.1]heptan-2-amine]
PRX-P4-003 administered orally (FIG. 4)
  Prodrug form present in the plasma: almost none
PRX-P4-003 oral 5 mg/kg b.w., 0.00 h, mean
  Plasma concentration of PRX-P4-003: 0.00
PRX-P4-003 oral 5 mg/kg b.w., 0.08 h, mean
  Plasma concentration of PRX-P4-003: 0.00
PRX-P4-003 oral 5 mg/kg b.w., 0.25 h, mean
  Plasma concentration of PRX-P4-003: 0.00
PRX-P4-003 oral 5 mg/kg b.w., 0.50 h, mean
  Plasma concentration of PRX-P4-003: 0.00
PRX-P4-003 oral 5 mg/kg b.w., 1.00 h, mean
  Plasma concentration of PRX-P4-003: 0.00
PRX-P4-003 oral 5 mg/kg b.w., 2.00 h, mean
  Plasma concentration of PRX-P4-003: 0.00
PRX-P4-003 oral 5 mg/kg b.w., 4.00 h, mean
  Plasma concentration of PRX-P4-003: 0.00
PRX-P4-003 oral 5 mg/kg b.w., 6.00 h, mean
  Plasma concentration of PRX-P4-003: 0.00
PRX-P4-003 oral 5 mg/kg b.w., 24.00 h, mean
  Plasma concentration of PRX-P4-003: 0.00
PRX-P4-003 oral 5 mg/kg, mean, 5 mg/kg
  AUC% extrap of PRX-P4-003: 0.0 ± 0.0% and 0.0%
PRX-P4-003 oral 10 mg/kg b.w., 0.00 h, mean
  Plasma concentration of PRX-P4-003: 0.00
PRX-P4-003 oral 10 mg/kg b.w., 0.08 h, mean
  Plasma concentration of PRX-P4-003: 0.00
PRX-P4-003 oral 10 mg/kg b.w., 0.25 h, mean
  Plasma concentration of PRX-P4-003: 0.00
PRX-P4-003 oral 10 mg/kg b.w., 0.50 h, mean
  Plasma concentration of PRX-P4-003: 0.00
PRX-P4-003 oral 10 mg/kg b.w., 1.00 h, mean
  Plasma concentration of PRX-P4-003: 0.00
PRX-P4-003 oral 10 mg/kg b.w., 2.00 h, mean
  Plasma concentration of PRX-P4-003: 0.00
PRX-P4-003 oral 10 mg/kg b.w., 4.00 h, mean
  Plasma concentration of PRX-P4-003: 0.00
PRX-P4-003 oral 10 mg/kg b.w., 6.00 h, mean
  Plasma concentration of PRX-P4-003: 0.00
PRX-P4-003 oral 10 mg/kg b.w., 24.00 h, mean
  Plasma concentration of PRX-P4-003: 0.00
PRX-P4-003 oral 10 mg/kg, mean
  AUC% extrap of PRX-P4-003: 0.0%
PRX-P4-003 oral administration (FIG. 2, FIG. 4)
  Active PRX-002 (−) Isomer formed in plasma: desired plasma concentration
male, Sprague Dawley, rat, in vivo, PRX-P4-003 oral 10 mg/kg, mean, read-out: Tmax of PRX-P4-003
  Tmax: 0 h
male, Sprague Dawley, rat, in vivo, oral 5 mg/kg [equivalent to PRX-002 (−)], analyte: prodrug in plasma, mean, read-out: Oral PK Parameters Tmax, Prodrug
  Tmax: 0 h
male, Sprague-Dawley, rat, in vivo, PRX-P4-003 oral 5 mg/kg, mean, read-out: Tmax of PRX-P4-003
  Tmax: 0 h

## CCCCCCCCCCCCCCCCCC(=O)OC(C)OC(=O)N(CC)C1C2CCC(C2)C1c1ccccc1 (single isomer, unassigned) [PRX-P5-011, N-(1-Octadecanoyloxyethoxycarbonyl)-(+)-N-ethyl-3-phenylbicyclo[2.2.1]heptan-2-amine]
PRX-P5-011 oral (5 mg/kg equivalent), 0.00 h, individual animals
  Plasma concentration of PRX-P5-011: 0.00 ng/mL
PRX-P5-011 oral (5 mg/kg equivalent), 0.00 h, mean
  Plasma concentration of PRX-P5-011: 0.000 ng/mL
PRX-P5-011 oral (5 mg/kg equivalent), 0.08 h, individual animals
  Plasma concentration of PRX-P5-011: 0.00 ng/mL
PRX-P5-011 oral (5 mg/kg equivalent), 0.08 h, mean
  Plasma concentration of PRX-P5-011: 0.000 ng/mL
PRX-P5-011 oral (5 mg/kg equivalent), 0.25 h, individual animals
  Plasma concentration of PRX-P5-011: 0.00 ng/mL
PRX-P5-011 oral (5 mg/kg equivalent), 0.25 h, mean
  Plasma concentration of PRX-P5-011: 0.000 ng/mL
PRX-P5-011 oral (5 mg/kg equivalent), 0.50 h, individual animals
  Plasma concentration of PRX-P5-011: 0.00 ng/mL
PRX-P5-011 oral (5 mg/kg equivalent), 0.50 h, mean
  Plasma concentration of PRX-P5-011: 0.000 ng/mL
PRX-P5-011 oral (5 mg/kg equivalent), 1.00 h, individual animals
  Plasma concentration of PRX-P5-011: 0.00 ng/mL
PRX-P5-011 oral (5 mg/kg equivalent), 1.00 h, mean
  Plasma concentration of PRX-P5-011: 0.000 ng/mL
PRX-P5-011 oral (5 mg/kg equivalent), 2.00 h, individual animals
  Plasma concentration of PRX-P5-011: 0.00 ng/mL
PRX-P5-011 oral (5 mg/kg equivalent), 2.00 h, mean
  Plasma concentration of PRX-P5-011: 0.000 ng/mL
PRX-P5-011 oral (5 mg/kg equivalent), 4.00 h, individual animals
  Plasma concentration of PRX-P5-011: 0.00 ng/mL
PRX-P5-011 oral (5 mg/kg equivalent), 4.00 h, mean
  Plasma concentration of PRX-P5-011: 0.000 ng/mL
PRX-P5-011 oral (5 mg/kg equivalent), 6.00 h, individual animals
  Plasma concentration of PRX-P5-011: 0.00 ng/mL
PRX-P5-011 oral (5 mg/kg equivalent), 6.00 h, mean
  Plasma concentration of PRX-P5-011: 0.000 ng/mL
PRX-P5-011 oral (5 mg/kg equivalent), 24.00 h, individual animals
  Plasma concentration of PRX-P5-011: 0.00 ng/mL
PRX-P5-011 oral (5 mg/kg equivalent), 24.00 h, mean
  Plasma concentration of PRX-P5-011: 0.000 ng/mL
PRX-P5-011 oral administration
  Active compound PRX-002 (+) in plasma: not detected
male, Sprague-Dawley, rat, in vivo, PRX-P5-011 oral (5 mg/kg equivalent), 0.00 h, individual animals, read-out: Plasma concentration of PRX-P5-011
  concentration at 0 h: 0 ng/mL
male, Sprague-Dawley, rat, in vivo, PRX-P5-011 oral (5 mg/kg equivalent), 0.08 h, individual animals, read-out: Plasma concentration of PRX-P5-011
  concentration at 0.08 h: 0 ng/mL
male, Sprague-Dawley, rat, in vivo, PRX-P5-011 oral (5 mg/kg equivalent), 0.25 h, individual animals, read-out: Plasma concentration of PRX-P5-011
  concentration at 0.25 h: 0 ng/mL
male, Sprague-Dawley, rat, in vivo, PRX-P5-011 oral (5 mg/kg equivalent), 0.50 h, individual animals, read-out: Plasma concentration of PRX-P5-011
  concentration at 0.5 h: 0 ng/mL
male, Sprague-Dawley, rat, in vivo, PRX-P5-011 oral (5 mg/kg equivalent), 1.00 h, individual animals, read-out: Plasma concentration of PRX-P5-011
  concentration at 1 h: 0 ng/mL
male, Sprague-Dawley, rat, in vivo, PRX-P5-011 oral (5 mg/kg equivalent), 2.00 h, individual animals, read-out: Plasma concentration of PRX-P5-011
  concentration at 2 h: 0 ng/mL
male, Sprague-Dawley, rat, in vivo, PRX-P5-011 oral (5 mg/kg equivalent), 4.00 h, individual animals, read-out: Plasma concentration of PRX-P5-011
  concentration at 4 h: 0 ng/mL
male, Sprague-Dawley, rat, in vivo, PRX-P5-011 oral (5 mg/kg equivalent), 6.00 h, individual animals, read-out: Plasma concentration of PRX-P5-011
  concentration at 6 h: 0 ng/mL
male, Sprague-Dawley, rat, in vivo, PRX-P5-011 oral (5 mg/kg equivalent), 24.00 h, individual animals, read-out: Plasma concentration of PRX-P5-011
  concentration at 24 h: 0 ng/mL
Oral 5 mg/kg [equivalent to PRX-002 (−)], analyte: prodrug in plasma, mean
  Oral PK Parameters Tmax, Prodrug: 0 h
